Like-named read-outs stand apart in the source and are kept apart here.
Columns and labels:
Assay type in all cases: cell-based
HUVEC [1] = assay: HUVEC growth inhibition assay (crystal violet); settings: Homo sapiens, 72 hours, read-out: IC50 Concentration, Growth Inhibition
Method: HUVEC (1.5×10^3) are plated in a 96-well plate in 100 μl of EBM-2 (Clonetic # CC3162). After 24 hours (day 0), a test solution of Compound 1 (100 μl) is added to each well at 2× the desired concentration (5-7 concentration levels) in EBM-2 medium. On day 0, one plate is stained with 0.5% crystal violet in 20% methanol for 10 minutes, rinsed with water, and air-dried. The remaining plates are incubated for 72 hours at 37° C. After 72 hours, plates are stained with 0.5% crystal violet in 20% methanol, rinsed with water and air-dried. The stain is eluted with 1:1 solution of ethanol: 0.1 M sodium citrate (including day 0 plate), and absorbance is measured at 540 nm with an ELISA reader (Dyriatech Laboratories). Day 0 absorbance is subtracted from the 72 hour plates and data is plotted as percentage of control proliferation (vehicle treated cells).

HUVEC [2] = assay: HUVEC cord formation assay (Matrigel); settings: Homo sapiens, 24 hour incubation, read-out: IC50 Concentration, Cord Formation
Method: Matrigel (60 μl of 10 mg/ml; Collaborative Lab # 35423) was placed in each well of an ice-cold 96-well plate. The plate is allowed to sit at room temperature for 15 minutes then incubated at 37° C. for 30 minutes to permit the matrigel to polymerize. In the mean time, HUVEC are prepared in EGM-2 (Clonetic# CC3162) at a concentration of 2×10^5 cells/ml. Test solutions of Compound I are prepared at 2× the desired concentration (5 concentration levels) in the same medium. The cells (500 μl) and 2× Compound 1 (500 μl) solution are mixed and 200 μl of this suspension are placed in duplicate on the polymerized matrigel. After a 24 hour incubation, triplicate pictures are taken for each concentration using a Bioquant Image Analysis system. Drug effect (IC50) is assessed compared to untreated controls by measuring the length of cords formed and number of junctions, and is reported in Table 8.

SK-MEL-28 = assay: NCI in vitro SRB assay, Melanoma; settings: for CC50 / GI50: Homo sapiens
Method: (§1) An in vitro assay which tested the ability of N,N,-diethyl-8,8-dipropyl-2-azaspiro[4,5]decane-2-propanamine dimaleate (Compound 1) to inhibit the growth of known cancer cell lines was performed by the National Cancer Institute in accordance with standard procedures. See: Lin, Z. X., Hoult, J. R., and Raman, A. Sulphorhodamine B assay for measuring proliferation of a pigmented melanocyte cell line and its application to the evaluation of crude drugs used in the treatment of vitiligo. J Ethnopharmacol. 66: 141-150, 1999. Briefly, selected tumor cell lines were cultured in media containing five different concentrations of Compound 1. After 48 hours of continuous exposure, a sulforhodamine B (SRB) assay was used to estimate cell viability or growth via optical measurements.
(§2) From the measurements, the following values were determined: 1) the concentration of Compound 1 at which a tumor cell growth inhibition of 50% (relative to control) occurs (GI50), 2) the concentration of Compound 1 at which no growth occurs (total growth inhibition, TGI), and 3) the concentration of Compound 1 at which the […] (LC 50). […] FIG. 6 illustrates, graphically, tumor cell growth as a function of Compound 1 concentration of the scanned tumor cell lines.

SK-MEL-5 = assay: NCI in vitro SRB assay, Melanoma; settings: for CC50 / GI50: Homo sapiens
Method: as §1, §2

UACC-257 = assay: NCI in vitro SRB assay, Melanoma; settings: for CC50 / GI50: Homo sapiens
Method: as §1, §2

[3] = SK-MEL-28, Log10 conc -4.0 Moles/L
[4] = SK-MEL-28, Log10 conc -5.0 Moles/L
[5] = SK-MEL-28, Log10 conc -6.0 Moles/L
[6] = SK-MEL-28, Log10 conc -7.0 Moles/L
[7] = SK-MEL-28, Log10 conc -8.0 Moles/L
[8] = SK-MEL-5, Log10 conc -4.0 Moles/L
[9] = SK-MEL-5, Log10 conc -5.0 Moles/L
[10] = SK-MEL-5, Log10 conc -6.0 Moles/L
[11] = SK-MEL-5, Log10 conc -7.0 Moles/L
[12] = SK-MEL-5, Log10 conc -8.0 Moles/L
[13] = UACC-257, Log10 conc -4.0 Moles/L
[14] = UACC-257, Log10 conc -5.0 Moles/L
[15] = UACC-257, Log10 conc -6.0 Moles/L
[16] = UACC-257, Log10 conc -7.0 Moles/L
[17] = UACC-257, Log10 conc -8.0 Moles/L

## CCCC1(CCC)CCC2(CCN(CCCN(CC)CC)C2)CC1.O=C(O)/C=C\C(=O)O.O=C(O)/C=C\C(=O)O [Compound 1, N,N,-diethyl-8,8-dipropyl-2-azaspiro[4,5]decane-2-propanamine dimaleate]
HUVEC [1]
  IC50: 2050 nM
HUVEC [2]
  IC50: 2630 nM
SK-MEL-28; SK-MEL-28, read-out: LC50
  CC50: 4860 nM
SK-MEL-28; SK-MEL-28, read-out: Log10 LC50 (converted)
  CC50: 4900 nM
SK-MEL-28; SK-MEL-28, read-out: GI50
  GI50: 561 nM
SK-MEL-28; SK-MEL-28, read-out: Log10 GI50 (converted)
  GI50: 562 nM
SK-MEL-28; SK-MEL-28
  Log10 TGI: −5.72
  TGI: 1890 nM
SK-MEL-28; [3]
  Mean Optical Densities: 0.026
  Percent Growth: −95%
SK-MEL-28; [4]
  Mean Optical Densities: 0.061
  Percent Growth: −88%
SK-MEL-28; [5]
  Mean Optical Densities: 0.846
  Percent Growth: 34%
SK-MEL-28; [6]
  Mean Optical Densities: 1.473
  Percent Growth: 98%
SK-MEL-28; [7]
  Mean Optical Densities: 1.301
  Percent Growth: 80%
SK-MEL-5; SK-MEL-5, read-out: LC50
  CC50: 5250 nM
SK-MEL-5; SK-MEL-5, read-out: Log10 LC50 (converted)
  CC50: 5250 nM
SK-MEL-5; SK-MEL-5, read-out: GI50
  GI50: 1280 nM
SK-MEL-5; SK-MEL-5, read-out: Log10 GI50 (converted)
  GI50: 1290 nM
SK-MEL-5; SK-MEL-5
  Log10 TGI: −5.59
  TGI: 2590 nM
SK-MEL-5; [8]
  Mean Optical Densities: −0.001
  Percent Growth: −100%
SK-MEL-5; [9]
  Mean Optical Densities: 0.021
  Percent Growth: −96%
SK-MEL-5; [10]
  Mean Optical Densities: 1.420
  Percent Growth: 68%
SK-MEL-5; [11]
  Mean Optical Densities: 1.797
  Percent Growth: 95%
SK-MEL-5; [12]
  Mean Optical Densities: 1.779
  Percent Growth: 93%
UACC-257; UACC-257, read-out: LC50
  CC50: 8740 nM
UACC-257; UACC-257, read-out: Log10 LC50 (converted)
  CC50: 8710 nM
UACC-257; UACC-257, read-out: GI50
  GI50: 1740 nM
UACC-257; UACC-257, read-out: Log10 GI50 (converted)
  GI50: 1740 nM
UACC-257; UACC-257
  Log10 TGI: −5.41
  TGI: 3900 nM
UACC-257; [13]
  Mean Optical Densities: 0.113
  Percent Growth: −75%
UACC-257; [14]
  Mean Optical Densities: 0.190
  Percent Growth: −58%
UACC-257; [15]
  Mean Optical Densities: 1.302
  Percent Growth: 84%
UACC-257; [16]
  Mean Optical Densities: 1.427
  Percent Growth: 97%
UACC-257; [17]
  Mean Optical Densities: 1.403
  Percent Growth: 94%

— patent US20050250801A1, “Method of treating cancer with azaspirane compositions” (priority 2003, published 2005)
